In patent US7528138B2, “Pyrazolo[1,5-a]pyrimidines useful as inhibitors of protein kinases” (Vertex Pharmaceuticals Incorporated, priority 2004, dated 2009):
pKi: −log10 of the molar value.

Key:
Type in all cases: biochemical
[1] = target: c-Met (Homo sapiens, UniProt P08581); experiment: c-Met Inhibition Assay, coupled enzyme system; details: enzyme inhibition data (Ki), Table 11
How it was run: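 Pyruvate kinase/lactate dehydrogenase-coupled NADH assay in HEPES pH 7.5 with 80 nM c-Met, 200 μM ATP and 10 μM polyGluTyr at 30° C. Compound (0.006–12.5 μM final, 12-point) preincubated 10 min before ATP start; rates over 10 min gave Ki.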

[2] = target: T1, Itk (Homo sapiens, UniProt Q08881); experiment: ITK Inhibition Assay (Radiometric), radioactive-phosphate incorporation; details: enzyme inhibition data (Ki), Table 11; radiometric or UV assay not stated
T1 sequence (Q08881 1-620): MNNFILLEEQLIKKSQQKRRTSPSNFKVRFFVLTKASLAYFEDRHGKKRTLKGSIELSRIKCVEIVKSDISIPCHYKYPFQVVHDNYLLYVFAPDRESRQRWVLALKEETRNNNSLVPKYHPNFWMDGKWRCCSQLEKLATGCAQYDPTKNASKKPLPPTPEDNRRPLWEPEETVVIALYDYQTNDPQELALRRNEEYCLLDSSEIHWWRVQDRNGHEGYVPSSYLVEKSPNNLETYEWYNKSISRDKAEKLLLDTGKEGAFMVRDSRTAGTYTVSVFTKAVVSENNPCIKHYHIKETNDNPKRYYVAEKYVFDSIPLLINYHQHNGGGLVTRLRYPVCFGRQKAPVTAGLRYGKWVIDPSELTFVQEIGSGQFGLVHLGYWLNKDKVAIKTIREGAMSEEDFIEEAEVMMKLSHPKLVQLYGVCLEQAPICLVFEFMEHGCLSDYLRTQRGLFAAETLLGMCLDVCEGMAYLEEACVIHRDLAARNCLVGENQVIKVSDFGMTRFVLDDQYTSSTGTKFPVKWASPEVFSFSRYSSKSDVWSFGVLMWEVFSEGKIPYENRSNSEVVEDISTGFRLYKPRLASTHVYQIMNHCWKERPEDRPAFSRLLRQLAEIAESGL
How it was run: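 Radiometric 33P incorporation into SAM68 peptide (D332-443) with filter capture and scintillation counting; 10 min pre-incubation then 10 min reaction at 25° C. IC50 format: 30 nM Itk, 15 μM ATP, 2 μM peptide, HEPES pH 7.5. Ki(app) format: 50 nM Itk, 7.5 μM ATP, 3 μM peptide, MOPS pH 7.0.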

[3] = target: T2, JAK3 (Homo sapiens, UniProt P52333); experiment: JAK3 Inhibition Assay, 33P incorporation; details: enzyme inhibition data (Ki), Table 11
T2 sequence (P52333 1-1124): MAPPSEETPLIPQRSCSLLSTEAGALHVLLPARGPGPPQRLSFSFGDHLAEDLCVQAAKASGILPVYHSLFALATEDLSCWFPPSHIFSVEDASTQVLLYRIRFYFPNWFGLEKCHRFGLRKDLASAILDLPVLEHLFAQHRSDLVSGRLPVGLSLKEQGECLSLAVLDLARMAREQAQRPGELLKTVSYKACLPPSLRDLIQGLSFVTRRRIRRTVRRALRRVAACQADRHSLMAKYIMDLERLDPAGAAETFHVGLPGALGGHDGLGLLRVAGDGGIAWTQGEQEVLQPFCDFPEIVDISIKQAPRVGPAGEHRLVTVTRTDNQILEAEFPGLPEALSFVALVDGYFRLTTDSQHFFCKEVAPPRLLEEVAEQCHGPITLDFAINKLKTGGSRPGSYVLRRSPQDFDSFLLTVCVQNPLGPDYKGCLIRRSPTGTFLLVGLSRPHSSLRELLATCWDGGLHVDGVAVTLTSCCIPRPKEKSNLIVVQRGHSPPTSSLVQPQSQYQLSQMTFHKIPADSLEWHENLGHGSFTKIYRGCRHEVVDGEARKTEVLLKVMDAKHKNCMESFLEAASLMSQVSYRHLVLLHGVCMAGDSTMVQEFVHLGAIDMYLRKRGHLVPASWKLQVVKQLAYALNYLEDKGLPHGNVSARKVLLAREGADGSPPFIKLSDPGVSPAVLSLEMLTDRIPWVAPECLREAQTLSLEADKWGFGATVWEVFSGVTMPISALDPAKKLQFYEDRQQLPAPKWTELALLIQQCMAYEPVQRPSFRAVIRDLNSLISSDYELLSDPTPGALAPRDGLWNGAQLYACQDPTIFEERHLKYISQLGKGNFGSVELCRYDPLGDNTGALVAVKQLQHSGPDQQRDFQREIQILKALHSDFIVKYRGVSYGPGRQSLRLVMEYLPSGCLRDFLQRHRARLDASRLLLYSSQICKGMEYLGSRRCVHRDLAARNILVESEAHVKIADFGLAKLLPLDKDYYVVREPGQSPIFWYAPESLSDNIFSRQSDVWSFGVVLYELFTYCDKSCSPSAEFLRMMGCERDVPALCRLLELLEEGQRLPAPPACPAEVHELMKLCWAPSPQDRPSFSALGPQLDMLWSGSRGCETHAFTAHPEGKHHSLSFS
How it was run: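 33P incorporation into 1 μM poly(Glu)4Tyr was counted after TCA stop and glass fiber filtration. The 20 min reaction ran at 25 °C with 1 nM JAK3 and 5 μM ATP (200 uCi/μmole). Buffer was 100 mM HEPES pH 7.4, 10 mM MgCl2, 25 mM NaCl, 1 mM DTT, 0.01% BSA.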

Chain of c-Met (P08581 25-1390): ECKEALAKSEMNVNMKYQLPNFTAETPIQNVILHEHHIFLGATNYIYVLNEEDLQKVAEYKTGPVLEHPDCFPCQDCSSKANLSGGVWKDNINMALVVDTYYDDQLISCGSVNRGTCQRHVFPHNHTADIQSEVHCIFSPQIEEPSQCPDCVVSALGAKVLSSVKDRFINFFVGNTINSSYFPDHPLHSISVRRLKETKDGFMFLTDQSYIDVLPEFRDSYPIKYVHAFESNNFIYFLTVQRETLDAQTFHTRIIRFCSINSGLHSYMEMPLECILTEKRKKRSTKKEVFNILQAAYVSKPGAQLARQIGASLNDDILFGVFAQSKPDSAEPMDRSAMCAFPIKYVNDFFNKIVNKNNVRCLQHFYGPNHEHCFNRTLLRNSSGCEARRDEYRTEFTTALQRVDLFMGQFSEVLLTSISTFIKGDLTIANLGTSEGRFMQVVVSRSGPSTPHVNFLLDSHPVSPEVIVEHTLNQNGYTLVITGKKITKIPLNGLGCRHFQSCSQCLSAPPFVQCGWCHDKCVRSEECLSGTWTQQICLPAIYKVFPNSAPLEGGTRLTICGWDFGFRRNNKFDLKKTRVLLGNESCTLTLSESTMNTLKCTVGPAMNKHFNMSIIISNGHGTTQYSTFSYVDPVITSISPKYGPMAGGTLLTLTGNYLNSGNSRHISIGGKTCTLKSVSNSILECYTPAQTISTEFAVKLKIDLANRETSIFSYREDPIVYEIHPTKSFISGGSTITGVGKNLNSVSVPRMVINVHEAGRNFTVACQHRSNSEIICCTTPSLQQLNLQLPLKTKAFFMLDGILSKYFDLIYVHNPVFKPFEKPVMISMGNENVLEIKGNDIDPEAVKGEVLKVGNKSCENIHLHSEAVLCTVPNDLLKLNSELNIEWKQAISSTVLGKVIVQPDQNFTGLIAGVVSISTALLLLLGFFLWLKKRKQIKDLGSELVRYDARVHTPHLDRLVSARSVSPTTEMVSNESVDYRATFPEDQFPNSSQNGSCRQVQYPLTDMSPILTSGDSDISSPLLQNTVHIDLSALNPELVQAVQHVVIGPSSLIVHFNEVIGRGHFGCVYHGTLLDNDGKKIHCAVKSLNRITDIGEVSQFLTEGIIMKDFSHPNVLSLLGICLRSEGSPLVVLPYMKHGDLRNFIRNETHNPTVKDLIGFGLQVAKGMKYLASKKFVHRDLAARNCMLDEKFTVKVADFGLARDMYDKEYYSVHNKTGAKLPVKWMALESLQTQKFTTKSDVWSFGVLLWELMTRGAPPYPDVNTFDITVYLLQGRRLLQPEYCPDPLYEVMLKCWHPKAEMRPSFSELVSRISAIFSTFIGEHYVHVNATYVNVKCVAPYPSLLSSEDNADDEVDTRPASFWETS

| Compound | pKi [1] | pKi [2] | pKi [3] |
| --- | --- | --- | --- |
| CN1CCCN(c2cc(-c3cnc4c(-c5ccccn5)c(N)nn4c3)ccn2)CC1 [Compound V-254] | 5.30 to 6.30 | 5.30 to 6.30 | < 5.30 |
| Nc1nn2cc(-c3ccc(N4CCN(c5cnccn5)CC4)nc3)cnc2c1-c1ccccn1 [Compound V-162] | 5.30 to 6.30 | 5.30 to 6.30 | < 5.30 |
| Cc1cnc2c(-c3cc(N4CCC(c5ccccc5)C4)ncn3)c(N)nn2c1 (stereo not drawn) [Compound V-303] | 5.30 to 6.30 | 5.30 to 6.30 | 5.30 to 6.30 |
| Nc1nn2cc(-c3ccncn3)cnc2c1C(=O)O [Compound V-28] | 5.30 to 6.30 | 5.30 to 6.30 | < 5.30 |
| CC(C)N(CCCc1cnc2c(-c3ccccn3)c(N)nn2c1)C(C)C [Compound V-320] | 5.30 to 6.30 | 5.30 to 6.30 | < 5.30 |
| Cc1cnc2c(-c3cc(N4CCC[C@H]4CO)ncn3)c(N)nn2c1 [Compound V-306] | > 6.30 | 5.30 to 6.30 | 5.30 to 6.30 |
| Cc1cnc2c(-c3cc(N4CCCC4C)ncn3)c(N)nn2c1 (stereo not drawn) [Compound V-299] | > 6.30 | > 6.30 | > 6.30 |
| Cc1cnc2c(-c3cc(NC4CCCC4)ncn3)c(N)nn2c1 [Compound V-332] | > 6.30 | > 6.30 | 5.30 to 6.30 |
| Nc1nn2cc(CCCN3CCSCC3)cnc2c1-c1ccccn1 [Compound V-328] | 5.30 to 6.30 | 5.30 to 6.30 | < 5.30 |
| Cc1cnc2c(-c3cc(NCc4cc(Cl)ccc4Cl)ncn3)c(N)nn2c1 [Compound V-275] | 5.30 to 6.30 | 5.30 to 6.30 | < 5.30 |
| CCOC(=O)c1c(N)nn2cc(-c3cnccn3)cnc12 [Compound V-26] | 5.30 to 6.30 | 5.30 to 6.30 | < 5.30 |
| CCOC(=O)c1c(N)nn2cc(-c3ccncn3)cnc12 [Compound V-27] | 5.30 to 6.30 | 5.30 to 6.30 | < 5.30 |
| CC[C@H](CO)Nc1cc(-c2c(N)nn3cc(C)cnc23)ncn1 [Compound V-287] | > 6.30 | 5.30 to 6.30 | 5.30 to 6.30 |
| Nc1nn2cc(-c3ccncn3)cnc2c1C(=O)N1CCC[C@H]1CN1CCCC1 [Compound V-34] | 5.30 to 6.30 | 5.30 to 6.30 | < 5.30 |
| Nc1nn2cc(-c3cccnc3N3CCN(CCO)CC3)cnc2c1-c1ccccn1 [Compound V-266] | 5.30 to 6.30 | 5.30 to 6.30 | < 5.30 |
| Cc1cnc2c(-c3cc(N4CCC[C@H]4CN4CCCC4)ncn3)c(N)nn2c1 [Compound V-305] | 5.30 to 6.30 | 5.30 to 6.30 | < 5.30 |
| Nc1nn2cc(-c3ccncn3)cnc2c1C(=O)NCc1ccc(F)cc1F [Compound V-32] | 5.30 to 6.30 | 5.30 to 6.30 | < 5.30 |
| Cc1cnc2c(-c3cc(N4CCC(NC(=O)C(F)(F)F)C4)ncn3)c(N)nn2c1 (stereo not drawn) [Compound V-343] | 5.30 to 6.30 | 5.30 to 6.30 | 5.30 to 6.30 |
| Nc1nn2cc(-c3ccc(N4CCN(Cc5ccncc5)CC4)nc3)cnc2c1-c1ccccn1 [Compound V-163] | > 6.30 | 5.30 to 6.30 | < 5.30 |

The remaining lines, values ahead:

| pKi [1] | pKi [2] | pKi [3] | Compound |
| --- | --- | --- | --- |
| 5.30 to 6.30 | 5.30 to 6.30 | < 5.30 | Nc1nn2cc(C(=O)NCc3ccccc3)cnc2c1-c1ccccn1 [Compound V-207] |
| 5.30 to 6.30 | 5.30 to 6.30 | < 5.30 | Nc1nn2cc(-c3ccccc3O)cnc2c1-c1ccccn1 [Compound V-8] |
| > 6.30 | > 6.30 | 5.30 to 6.30 | CCCCN(CCN)C(=O)c1cccc(-c2cnc3c(-c4ccccn4)c(N)nn3c2)n1 [Compound V-113] |
| > 6.30 | 5.30 to 6.30 | < 5.30 | Nc1nn2cc(-c3ccnc(N4CCC[C@@H]4CO)c3)cnc2c1-c1ccccn1 [Compound V-251] |
| > 6.30 | > 6.30 | 5.30 to 6.30 | Nc1nn2cc(-c3ccc(C(=O)N4CCC(N)CC4)cn3)cnc2c1-c1ccccn1 [Compound V-69] |
| > 6.30 | 5.30 to 6.30 | < 5.30 | Nc1nn2cc(-c3ccnc(N4CCN(Cc5ccccc5)CC4)c3)cnc2c1-c1ccccn1 [Compound V-247] |
| 5.30 to 6.30 | 5.30 to 6.30 | < 5.30 | CCN(Cc1ccccn1)c1ncccc1-c1cnc2c(-c3ccccn3)c(N)nn2c1 [Compound V-263] |
| 5.30 to 6.30 | 5.30 to 6.30 | < 5.30 | CN(C)CCN(Cc1ccccc1)C(=O)c1c(N)nn2cc(-c3ccncn3)cnc12 [Compound V-35] |
| 5.30 to 6.30 | 5.30 to 6.30 | < 5.30 | Nc1nn2cc(-c3ccncn3)cnc2c1C(=O)N(CCO)Cc1ccccc1 [Compound V-37] |
| 5.30 to 6.30 | 5.30 to 6.30 | < 5.30 | Cc1cccc(C)c1-c1cnc2c(-c3ccccn3)c(N)nn2c1 [Compound V-4] |
| > 6.30 | 5.30 to 6.30 | < 5.30 | CCCN(CCO)c1ccc(-c2cnc3c(-c4ccccn4)c(N)nn3c2)cn1 [Compound V-158] |
| 5.30 to 6.30 | 5.30 to 6.30 | < 5.30 | N#Cc1ccccc1-c1cnc2c(-c3ccccn3)c(N)nn2c1 [Compound V-10] |
| 5.30 to 6.30 | 5.30 to 6.30 | < 5.30 | Nc1nn2cc(-c3cccnc3N3CCCC3)cnc2c1-c1ccccn1 [Compound V-258] |
| > 6.30 | 5.30 to 6.30 | < 5.30 | CC(C)N(C)C(=O)c1cccc(-c2cnc3c(-c4ccccn4)c(N)nn3c2)n1 [Compound V-103] |
| > 6.30 | 5.30 to 6.30 | 5.30 to 6.30 | CN(CCc1ccccn1)C(=O)c1ccc(-c2cnc3c(-c4ccccn4)c(N)nn3c2)nc1 [Compound V-60] |
| > 6.30 | 5.30 to 6.30 | 5.30 to 6.30 | Nc1nn2cc(-c3cccc(C(=O)NCCF)n3)cnc2c1-c1ccccn1 [Compound V-107] |
| 5.30 to 6.30 | 5.30 to 6.30 | < 5.30 | CN(C)Cc1ccccc1-c1cnc2c(-c3ccccn3)c(N)nn2c1 [Compound V-23] |
| 5.30 to 6.30 | 5.30 to 6.30 | < 5.30 | Nc1nn2cc(-c3cccnc3N3CCCCC3)cnc2c1-c1ccccn1 [Compound V-259] |
| 5.30 to 6.30 | 5.30 to 6.30 | < 5.30 | Nc1nn2cc(-c3ccccc3C=O)cnc2c1-c1ccccn1 [Compound V-12] |
| 5.30 to 6.30 | 5.30 to 6.30 | < 5.30 | CC(C)(C)OCc1ccccc1-c1cnc2c(-c3ccccn3)c(N)nn2c1 [Compound V-49] |
| 5.30 to 6.30 | 5.30 to 6.30 | < 5.30 | CS(=O)(=O)Nc1ccccc1-c1cnc2c(-c3ccccn3)c(N)nn2c1 [Compound V-16] |
| > 6.30 | 5.30 to 6.30 | < 5.30 | CCCN(CCO)C(=O)c1cccc(-c2cnc3c(-c4ccccn4)c(N)nn3c2)n1 [Compound V-111] |
